Test results published in patent US10428083B2, “Heterocyclylmethyl-thienouracile as antagonists of the adenosine-A2B-receptor” (BAYER PHARMA AKTIENGESELLSCHAFT, priority 2015, dated 2019).

Target: human adenosine A2b receptor (Homo sapiens (Human), UniProt P29275)
Assay: Cellular in vitro reporter gene test for A2b receptor activity (CHO-K1, CRE-luciferase, NECA stimulation)
Type: cell-based
Settings: recombinant CHO-K1 cell line, CRE-luciferase reporter, antagonism of EC50 concentration of NECA; in some cases means of several determinations, rounded to two significant figures; read-out: A2b receptor IC50
Procedure, shortened: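 CHO-K1 cells with CRE-driven luciferase; antagonists co-incubated with NECA at its EC50, determined in a pre-experiment on each test day. Luciferase read by luminescence 3 h after NECA addition.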

human adenosine A2b receptor, sequence (P29275 whole entry): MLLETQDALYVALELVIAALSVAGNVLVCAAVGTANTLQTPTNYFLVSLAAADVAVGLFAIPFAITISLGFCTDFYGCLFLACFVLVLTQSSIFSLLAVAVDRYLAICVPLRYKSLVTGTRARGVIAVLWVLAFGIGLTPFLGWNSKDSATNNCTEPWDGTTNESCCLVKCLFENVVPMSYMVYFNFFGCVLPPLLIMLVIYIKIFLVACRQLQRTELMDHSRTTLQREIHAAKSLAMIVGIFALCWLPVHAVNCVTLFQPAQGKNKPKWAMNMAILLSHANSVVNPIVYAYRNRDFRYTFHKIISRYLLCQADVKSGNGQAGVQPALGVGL

SMILES	IC50 [nM]
COCCn1c(=O)c2c(C)c(CN3CCNC3=O)sc2n(CC2CCCO2)c1=O (single isomer, unassigned) [Example 324, 3-(2-Methoxyethyl)-5-methyl-6-[(2-oxoimidazolidin-1-yl)methyl]-1-(tetrahydrofuran-2-ylmethyl)thieno[2,3-d]pyrimidine-2,4(1H,3H)-dione]	110
Cc1c(Cn2[nH]ccc2=O)sc2c1c(=O)n(CC(F)(F)F)c(=O)n2CC1CCCO1 (single isomer, unassigned) [Example 286, 5-Methyl-6-[(5-oxo-2,5-dihydro-1H-pyrazol-1-yl)methyl]-1-(tetrahydrofuran-2-ylmethyl)-3-(2,2,2-trifluoroethyl)thieno[2,3-d]pyrimidine-2,4(1H,3H)-dione]	220
COC(=O)N=C1NCCN1Cc1sc2c(c1C)c(=O)n(C(C)C)c(=O)n2CC1CCO1 (single isomer, unassigned) [Example 458, Methyl [1-{[3-isopropyl-5-methyl-1-(oxetan-2-ylmethyl)-2,4-dioxo-1,2,3,4-tetrahydrothieno[2,3-d]pyrimidin-6-yl]methyl}imidazolidin-2-ylidene]carbamate]	34
Cc1c(CN2CCNC2=NC#N)sc2c1c(=O)n(CC(F)(F)F)c(=O)n2CC1CCO1 (stereo not drawn) [Example 359, [1-{[5-Methyl-1-(oxetan-2-ylmethyl)-2,4-dioxo-3-(2,2,2-trifluoroethyl)-1,2,3,4-tetrahydrothieno[2,3-d]pyrimidin-6-yl]methyl}imidazolidin-2-ylidene]cyanamide]	37
Cc1c(Cn2nc[nH]c2=O)sc2c1c(=O)n(C(C)C)c(=O)n2CF [Example 422, 1-(Fluoromethyl)-3-isopropyl-5-methyl-6-[(5-oxo-4,5-dihydro-1H-1,2,4-triazol-1-yl)methyl]thieno[2,3-d]pyrimidine-2,4(1H,3H)-dione]	170
COCCn1c(=O)n(CCC(F)(F)F)c(=O)c2c(C)c(CN3CCNC3=O)sc21 [Example 98, 1-(2-Methoxyethyl)-5-methyl-6-[(2-oxoimidazolidin-1-yl)methyl]-3-(3,3,3-trifluoropropyl)thieno[2,3-d]pyrimidine-2,4(1H,3H)-dione]	130
CCOCCn1c(=O)c2c(C)c(CN3CCNC3=O)sc2n(CCOC)c1=O [Example 327, 3-(2-Ethoxyethyl)-1-(2-methoxyethyl)-5-methyl-6-[(2-oxoimidazolidin-1-yl)methyl]thieno[2,3-d]pyrimidine-2,4(1H,3H)-dione]	40
CCn1c(=O)c2c(C)c(Cn3nc[nH]c3=O)sc2n(CCCF)c1=O [Example 353, 3-Ethyl-1-(3-fluoropropyl)-5-methyl-6-[(5-oxo-4,5-dihydro-1H-1,2,4-triazol-1-yl)methyl]thieno[2,3-d]pyrimidine-2,4(1H,3H)-dione]	31
COCCn1c(=O)c2c(C)c(CN3CCNC3=NC(=O)OC)sc2n(CC2CCO2)c1=O (racemic) [Example 387, Methyl [1-{[3-(2-methoxyethyl)-5-methyl-1-(oxetan-2-ylmethyl)-2,4-dioxo-1,2,3,4-tetrahydrothieno[2,3-d]pyrimidin-6-yl]methyl}imidazolidin-2-ylidene]carbamate]	96

Now those with a lower IC50, led by results:

IC50 [nM]	SMILES
13	Cc1c(CN2CCNC2=NC#N)sc2c1c(=O)n(CC(F)(F)F)c(=O)n2CC1CCCO1 (single isomer, unassigned) [Example 361, [1-{[5-Methyl-2,4-dioxo-1-(tetrahydrofuran-2-ylmethyl)-3-(2,2,2-trifluoroethyl)-1,2,3,4-tetrahydrothieno[2,3-d]pyrimidin-6-yl]methyl}imidazolidin-2-ylidene]cyanamide]
4.7	COCCn1c(=O)n(C(C)C)c(=O)c2c(C)c(Cn3cc[nH]c3=O)sc21 [Example 246, 3-Isopropyl-1-(2-methoxyethyl)-5-methyl-6-[(2-oxo-2,3-dihydro-1H-imidazol-1-yl)methyl]thieno[2,3-d]pyrimidine-2,4(1H,3H)-dione]
5.7	CCn1c(=O)c2c(C)c(CN3CCCOC3=O)sc2n(CCC(F)(F)F)c1=O [Example 25, 3-Ethyl-5-methyl-6-[(2-oxo-1,3-oxazinan-3-yl)methyl]-1-(3,3,3-trifluoropropyl)thieno[2,3-d]pyrimidine-2,4(1H,3H)-dione]
7.1	Cc1c(CN2CCNC2=S)sc2c1c(=O)n(CC(F)(F)F)c(=O)n2CC1CCO1 (racemic) [Example 154, 5-Methyl-1-(oxetan-2-ylmethyl)-6-[(2-thioxoimidazolidin-1-yl)methyl]-3-(2,2,2-trifluoroethyl)thieno[2,3-d]pyrimidine-2,4(1H,3H)-dione]
12	CCn1c(=O)c2c(C(F)F)c(CN3CCNC3=O)sc2n(CCOC)c1=O [Example 101, 5-(Difluoromethyl)-3-ethyl-1-(2-methoxyethyl)-6-[(2-oxoimidazolidin-1-yl)methyl]thieno[2,3-d]pyrimidine-2,4(1H,3H)-dione]
26	Cc1c(CN2CCNC(=O)C2=O)sc2c1c(=O)n(C(C)C)c(=O)n2CC1CCO1 (single isomer, unassigned) [Example 399, 6-[(2,3-Dioxopiperazin-1-yl)methyl]-3-isopropyl-5-methyl-1-(oxetan-2-ylmethyl)thieno[2,3-d]pyrimidine-2,4(1H,3H)-dione]
15	COCCn1c(=O)c2c(C)c(CN3CCNC3=S)sc2n(CCOC)c1=O [Example 168, 1,3-Bis(2-methoxyethyl)-5-methyl-6-[(2-thioxoimidazolidin-1-yl)methyl]thieno[2,3-d]pyrimidine-2,4(1H,3H)-dione]
9.9	COC(=O)N=C1NCCN1Cc1sc2c(c1C)c(=O)n(CC(C)(C)C)c(=O)n2CC1CCCO1 (racemic) [Example 463, Methyl [1-{[3-(2,2-dimethylpropyl)-5-methyl-2,4-dioxo-1-(tetrahydrofuran-2-ylmethyl)-1,2,3,4-tetrahydrothieno[2,3-d]pyrimidin-6-yl]methyl}imidazolidin-2-ylidene]carbamate]
19	CCn1c(=O)c2c(C)c(CN3CCOCC3=O)sc2n(CCC(F)(F)F)c1=O [Example 14, 3-Ethyl-5-methyl-6-[(3-oxomorpholin-4-yl)methyl]-1-(3,3,3-trifluoropropyl)thieno[2,3-d]pyrimidine-2,4(1H,3H)-dione]
1.1	Cc1c(CN2CCNC2=O)sc2c1c(=O)n(CC(F)(F)F)c(=O)n2CCC(F)(F)F [Example 204, 5-Methyl-6-[(2-oxoimidazolidin-1-yl)methyl]-3-(2,2,2-trifluoroethyl)-1-(3,3,3-trifluoropropyl)thieno[2,3-d]pyrimidine-2,4(1H,3H)-dione]
7.6	Cc1c(CN2CCNC2=O)sc2c1c(=O)n(CC(F)(F)F)c(=O)n2C [Example 213, 1,5-Dimethyl-6-[(2-oxoimidazolidin-1-yl)methyl]-3-(2,2,2-trifluoroethyl)thieno[2,3-d]pyrimidine-2,4(1H,3H)-dione]
6.8	COCCn1c(=O)n(CC(F)(F)F)c(=O)c2c(C)c(CN3CCNC3=NC(=O)OC)sc21 [Example 382, Methyl [1-{[1-(2-methoxyethyl)-5-methyl-2,4-dioxo-3-(2,2,2-trifluoroethyl)-1,2,3,4-tetrahydrothieno[2,3-d]pyrimidin-6-yl]methyl}imidazolidin-2-ylidene]carbamate]
